These results are taken from US7985567B2, “Host cells and methods for producing 3-methyl-2-buten-1-ol, 3-methyl-3-buten-1-ol, and 3-methyl-butan-1-ol” (The Regents of the University of California, priority 2007, dated 2011).

This experiment relates to S. cerevisiae BY4741 cells. Nature of the experiment: In vivo reduction of 3-methyl-2-butenol or 3-methyl-3-butenol to 3-methyl-butanol by yeast. Type of experiment: cell-based, Saccharomyces cerevisiae. To be noted: 1 g/l substrate added after 48 hours, grown an additional 2 days; versus no substrate or 3-methyl-3-butenol; FIG. 3. Here is the method:
To test the capability of yeast to catalyze the conversion of 3-methyl-2-butenol to isopentanol, 5 ml. of YPD medium with 2% glycerol, in a 100 ml culture tube, was inoculated with an overnight culture of freshly plated S. cerevisiae BY4741 cells to achieve a final absorbance of 0.5 at 600 nm (A600). The cultures were grown at 30° C. at 200 r.p.m. After 48 hours, either 3-methyl-2-butenol or 3-methyl-3-butenol (1 g/l) was added to the culture.
Cultures were sampled after addition of 3-methyl-2-butenol or 3-methyl-3-butenol and grown for an additional 2 days. The samples were collected by pelleting 1 ml of culture, and adding 150 μl of the supernatant to 750 μl of the extraction solvent (80:20 chloroform:methanol spiked with 50 mg l^−1 of butanol internal standard). The samples were vortexed for 15 minutes and centrifuged for 2 minutes at 5000 r.c.f. 450 μl of the organic layer was removed from each sample and transferred to a clean GC vial for analysis. The GC-MS data were collected in full-scan mode (m/z 50-300) using a Tr-Wax column (0.25 mm×30 m, 0.25 μm film thickness; Thermo Electron) on a PolarisQ GC-MS with TriPlusautosampler (Thermo Electron). The carrier flow was 1.2 ml min^−1, and the inlet temperature was set to 200° C. The oven program was as follows: 40° C. […] Samples were normalized using the butanol internal standard and quantified using authentic standards.

Each structure is given as a SMILES string.

As to `CC(C)=CCO` [3-methyl-2-butenol, 3-methyl-2-buten-1-ol], the “isopentanol production by yeast grown in the presence of the alcohol substrate” value is “significantly more isopentanol”.
